Measured values from ChEMBL document CHEMBL1159184, “7-Silylcamptothecins (silatecans): A new family of camptothecin antitumor agents” (Bioorg Med Chem Lett, 1997).

Tests used:
833K = experiment: Tested in vitro for growth inhibitory activity against 833K (human teratorcarcinoma) cells; type: functional, cell-based
DC3F [1] = experiment: Tested in vitro for growth inhibitory activity against DC-3F (hamster lung) cells; type: functional, cell-based; settings: Cricetulus griseus
[2] = The compound was evaluated for inhibition of topoisomerase I mediated DNA relaxation of supercoiled DNA; 5-20; type: functional
[3] = The compound was evaluated for enhancement of topoisomerase I mediated DNA cleavage of supercoiled DNA; 1-2; type: functional
HL-60 = experiment: Tested in vitro for growth inhibitory activity against HL60 (human promyelocytic leukemic) cells; type: functional, cell-based
[4] = The compound was evaluated for enhancement of topoisomerase I mediated DNA cleavage of supercoiled DNA; 2-5; type: functional
[5] = The compound was evaluated for inhibition of topoisomerase I mediated DNA relaxation of supercoiled DNA; type: functional
[6] = The compound was evaluated for enhancement of topoisomerase I mediated DNA cleavage of supercoiled DNA; 0.1-1; type: functional
[7] = The compound was evaluated for inhibition of topoisomerase I mediated DNA relaxation of supercoiled DNA; 1-2; type: functional
DC3F [8] = experiment: The compound was tested in vitro for growth inhibitory activity against DC-3F (hamster lung) cells; Inactive; type: functional, cell-based, Cricetulus griseus
[9] = The compound was evaluated for inhibition of topoisomerase I mediated DNA relaxation of supercoiled DNA; 0.1-1; type: functional

| SMILES | IC50 (833K) | IC50 (DC3F [1]) | Inhibition [2] | Enhancement [3] | IC50 (HL-60) | Enhancement [4] | Inhibition [5] | Enhancement [6] | Inhibition [7] | IC50 (DC3F [8]) | Inhibition [9] |
| --- | --- | --- | --- | --- | --- | --- | --- | --- | --- | --- | --- |
| CCC(=O)OCc1c([C@@](O)(CC)C(=O)NCCN(C)C)cc2n(c1=O)Cc1c-2nc2ccc(O)cc2c1[Si](C)(C)C | 15 nM | 14.2 nM | 5 µM | 1 µM | 9.7 nM |  |  |  |  |  |  |
| CC[C@@]1(O)C(=O)OCc2c1cc1n(c2=O)Cc2c-1nc1ccccc1c2[Si](c1ccccc1)(c1ccccc1)C(C)(C)C | 243 nM | 663 nM | 5 µM |  | 339 nM | 2 µM |  |  |  |  |  |
| CC[C@@]1(O)C(=O)OCc2c1cc1n(c2=O)Cc2c-1nc1cc(F)ccc1c2[Si](C)(C)C | 0.92 nM | 2 nM |  |  | 0.75 nM |  | < 0.1 µM | 0.1 µM |  |  |  |
| CC[C@@]1(O)C(=O)OCc2c1cc1n(c2=O)Cc2c-1nc1cc(N)ccc1c2[Si](C)(C)C | 7.4 nM | 6.4 nM |  |  | 2.6 nM |  |  |  |  |  |  |
| CC[C@@]1(O)C(=O)OCc2c1cc1n(c2=O)Cc2c-1nc1ccc(OC(C)=O)cc1c2[Si](C)(C)C |  | 6.7 nM |  |  | 2.7 nM |  | < 0.1 µM | 0.1 µM |  |  |  |
| CC[C@@]1(O)C(=O)OCc2c1cc1n(c2=O)Cc2c-1nc1c(F)c(F)ccc1c2[Si](C)(C)C | 2.1 nM | 2.5 nM |  | 1 µM | 1.01 nM |  |  |  | 1 µM |  |  |
| CC[C@@]1(O)C(=O)OCc2c1cc1n(c2=O)Cc2c-1nc1ccc(N3CCCC3N3CCCC3OC(N)=O)cc1c2[Si](C)(C)C (stereo not given in full) | 214 nM | 256 nM |  |  | 66 nM |  |  |  |  |  |  |
| CC[C@@]1(O)C(=O)OCc2c1cc1n(c2=O)Cc2c-1nc1ccc(CCc3ccc4nc5c(c([Si](C)(C)C)c4c3)Cn3c-5cc4c(c3=O)COC(=O)[C@]4(O)CC)cc1c2[Si](C)(C)C | 84 nM |  |  |  | 53 nM |  | > 20 µM |  |  | Not Active |  |
| CC[C@@]1(O)C(=O)OCc2c1cc1n(c2=O)Cc2c-1nc1ccc(N)cc1c2[Si](C)(C)C | 5.7 nM | 0.72 nM |  |  | 0.52 nM |  |  |  |  |  |  |
| CC[C@@]1(O)C(=O)OCc2c1cc1n(c2=O)Cc2c-1nc1ccc(O)cc1c2[Si](C)(C)C | 7 nM | 6.9 nM |  |  | 2.6 nM |  | < 0.1 µM | 0.1 µM |  |  |  |
| CC[C@@]1(O)C(=O)OCc2c1cc1n(c2=O)Cc2c-1nc1ccccc1c2[Si](C)(C)C(C)(C)C | 1.2 nM | 2.9 nM |  |  | 0.12 nM |  |  | 0.1 µM |  |  | 1 µM |
| CC[C@@]1(O)C(=O)OCc2c1cc1n(c2=O)Cc2c-1nc1ccccc1c2[Si](C)(C)C | 5.6 nM | 4.2 nM |  |  | 3.8 nM |  |  | 0.1 µM |  |  | 1 µM |
| CC[C@@]1(O)C(=O)OCc2c1cc1n(c2=O)Cc2c-1nc1cccc(F)c1c2[Si](C)(C)C | 2.9 nM | 8.2 nM |  |  | 3 nM |  |  | 0.1 µM |  |  | 0.1 µM |
| CCc1c2c(nc3ccc(N4CCCC4N4CCCC4OC(N)=O)cc13)-c1cc3c(c(=O)n1C2)COC(=O)[C@]3(O)CC (stereo not given in full) | 487 nM | 372 nM |  |  | 270 nM |  |  |  |  |  |  |
| CC[C@@]1(O)C(=O)OCc2c1cc1n(c2=O)Cc2cc3ccccc3nc2-1 [CAMPTOTHECIN] | 10 nM | 6 nM |  | 1 µM | 5 nM |  |  |  | 1 µM |  |  |
| CC[C@@]1(O)C(=O)OCc2c1cc1n(c2=O)Cc2c-1nc1cc(F)c(N)cc1c2[Si](C)(C)C | 0.14 nM | 0.29 nM |  |  | 0.07 nM |  |  | 0.1 µM |  |  | 0.1 µM |
